Experimental data reported in PubChem BioAssay (NCI).
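Method: 48-hour compound exposure of cells in 96-well plates, five concentrations, linear interpolation of endpoints. At the TGI there is no net growth.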

Legend:
Assay in all cases: NCI-60 cell line screen, 48 h
[1] = test system: 786-0 renal
[2] = test system: SNB-19 CNS
[3] = test system: SK-MEL-2 melanoma
[4] = test system: CAKI-1 renal
[5] = test system: NCI-H522 lung
[6] = test system: SF-539 CNS
[7] = test system: EKVX NSCLC
[8] = test system: M19-MEL melanoma
[9] = test system: KM12 colon
[10] = test system: DMS 273 small cell lung
[11] = test system: UO-31 renal
[12] = test system: NCI-H226 lung
[13] = test system: TK-10 renal
[14] = test system: OVCAR-8 ovarian
[15] = test system: HCT-116 colon
[16] = test system: SNB-78 CNS
[17] = test system: A498 renal
[18] = test system: LXFL 529 NSCLC
[19] = test system: DLD-1 colon
[20] = test system: HL-60(TB) leukemia
[21] = test system: SK-OV-3 ovarian
[22] = test system: IGROV1 ovarian
[23] = test system: ACHN renal
[24] = test system: OVCAR-4 ovarian
[25] = test system: SF-295 CNS
[26] = test system: NCI-H23 lung
[27] = test system: LOX IMVI melanoma
[28] = test system: SN12C renal
[29] = test system: OVCAR-5 ovarian
[30] = test system: A549 NSCLC
[31] = test system: UACC-62 melanoma
[32] = test system: SF-268 CNS
[33] = test system: RXF 393 renal
[34] = test system: SR leukemia
[35] = test system: COLO 205 colon
[36] = test system: NCI-H460 lung
[37] = test system: HOP-92 NSCLC
[38] = test system: HCC-2998 colon
[39] = test system: SNB-75 CNS
[40] = test system: UACC-257 melanoma
[41] = test system: SK-MEL-28 melanoma
[42] = test system: SW-620 colon
[43] = test system: SK-MEL-5 melanoma
[44] = test system: HT29 colon
[45] = test system: HOP-18 NSCLC
[46] = test system: CCRF-CEM leukemia
[47] = test system: DMS 114 small cell lung
[48] = test system: M14 melanoma
[49] = test system: RPMI-8226 leukemia
[50] = test system: K-562 leukemia
[51] = test system: OVCAR-3 ovarian
[52] = test system: HCT-15 colon
[53] = test system: HOP-62 NSCLC
[54] = test system: MOLT-4 leukemia
[55] = test system: MALME-3M melanoma
[56] = test system: KM20L2 colon
[57] = test system: U251 CNS
[58] = test system: MCF7 breast
[59] = test system: MDA-N
[60] = test system: DU-145 prostate
[61] = test system: NCI/ADR-RES ovarian
[62] = test system: BT-549 breast
[63] = test system: PC-3 prostate
[64] = test system: MDA-MB-435
[65] = test system: MDA-MB-231 breast
[66] = test system: T-47D breast
[67] = test system: HS 578T breast

`CC(=O)NC(CCCN(Cc1ccccc1)C(=O)NCCCl)C(=O)NCc1ccccc1` (centres undefined) was tested, and the TGI [1] was greater than 100 µM, the TGI [2] was greater than 100 µM and the TGI [3] was greater than 100 µM. The TGI [4] was greater than 100 µM, the TGI [5] was greater than 100 µM and the TGI [6] was greater than 100 µM. The TGI [7] was greater than 100 µM, the TGI [8] was greater than 100 µM and the TGI [9] was greater than 100 µM. For the same compound, the TGI [10] was greater than 100 µM, the TGI [11] was greater than 100 µM and the TGI [12] was greater than 100 µM. It also gave a TGI [13] greater than 100 µM, a TGI [14] greater than 100 µM and a TGI [15] greater than 100 µM. The TGI [16] was greater than 100 µM, the TGI [17] was greater than 100 µM and the TGI [18] was greater than 100 µM. For the same compound, the TGI [19] was greater than 100 µM, the TGI [20] was greater than 100 µM and the TGI [21] was greater than 100 µM. For the same compound, the TGI [22] was greater than 100 µM, the TGI [23] was greater than 100 µM and the TGI [24] was greater than 100 µM. The TGI [25] was greater than 100 µM, the TGI [26] was greater than 100 µM and the TGI [27] was greater than 100 µM. The TGI [28] was greater than 100 µM, the TGI [29] was greater than 100 µM and the TGI [30] was greater than 100 µM. It also gave a TGI [31] greater than 100 µM, a TGI [32] greater than 100 µM and a TGI [33] greater than 100 µM. The TGI [34] was greater than 100 µM, the TGI [35] was greater than 100 µM and the TGI [36] was greater than 100 µM. For the same compound, the TGI [37] was greater than 100 µM, the TGI [38] was greater than 100 µM and the TGI [39] was greater than 100 µM. For the same compound, the TGI [40] was greater than 100 µM, the TGI [41] was greater than 100 µM and the TGI [42] was greater than 100 µM. It also gave a TGI [43] greater than 100 µM, a TGI [44] greater than 100 µM and a TGI [45] greater than 100 µM. The TGI [46] was greater than 100 µM, the TGI [47] was greater than 100 µM and the TGI [48] was greater than 100 µM. For the same compound, the TGI [49] was greater than 100 µM, the TGI [50] was greater than 100 µM and the TGI [51] was greater than 100 µM. It also gave a TGI [52] greater than 100 µM, a TGI [53] greater than 100 µM and a TGI [54] greater than 100 µM. The TGI [55] was greater than 100 µM, the TGI [56] was greater than 100 µM and the TGI [57] was greater than 100 µM.
Compound `CCCCCCCCCCCCCCCC(=O)Nc1ccn(C2OC(CO)C(O)C2O)c(=O)n1` (centres undefined) has a TGI [1] greater than 100 µM, a TGI [2] greater than 80.8 µM and a TGI [3] greater than 100 µM. It also gave a TGI [4] greater than 100 µM, a TGI [5] greater than 79.7 µM and a TGI [6] greater than 100 µM. For the same compound, the TGI [7] was greater than 100 µM, the TGI [8] was greater than 100 µM and the TGI [9] was greater than 100 µM. The TGI [10] was greater than 100 µM, the TGI [11] was greater than 43.9 µM and the TGI [12] was greater than 100 µM. It also gave a TGI [13] greater than 100 µM, a TGI [14] greater than 100 µM and a TGI [15] greater than 100 µM. The TGI [16] was greater than 100 µM, the TGI [58] was greater than 100 µM and the TGI [17] was greater than 100 µM. It also gave a TGI [18] greater than 100 µM, a TGI [19] greater than 100 µM and a TGI [20] of 43.3 µM. For the same compound, the TGI [21] was greater than 100 µM, the TGI [22] was greater than 100 µM and the TGI [23] was 99.4 µM. The TGI [24] was greater than 100 µM, the TGI [25] was greater than 100 µM and the TGI [26] was 81.5 µM. It also gave a TGI [27] of 38 µM, a TGI [28] greater than 100 µM and a TGI [29] greater than 100 µM. For the same compound, the TGI [30] was greater than 100 µM, the TGI [31] was greater than 100 µM and the TGI [32] was greater than 100 µM. It also gave a TGI [33] greater than 97.2 µM, a TGI [34] of 62.7 µM and a TGI [59] greater than 100 µM. It also gave a TGI [35] greater than 100 µM, a TGI [36] greater than 65.6 µM and a TGI [37] of 85.5 µM. For the same compound, the TGI [38] was greater than 100 µM, the TGI [60] was greater than 50.3 µM and the TGI [61] was greater than 100 µM. For the same compound, the TGI [39] was greater than 90.4 µM, the TGI [40] was greater than 100 µM and the TGI [41] was greater than 100 µM. The TGI [62] was greater than 100 µM, the TGI [42] was greater than 100 µM and the TGI [43] was greater than 100 µM. The TGI [44] was greater than 100 µM, the TGI [63] was greater than 100 µM and the TGI [45] was greater than 100 µM. The TGI [46] was 7.28 µM, the TGI [64] was greater than 100 µM and the TGI [65] was greater than 100 µM. For the same compound, the TGI [66] was greater than 100 µM, the TGI [47] was greater than 100 µM and the TGI [48] was 32.5 µM. It also gave a TGI [49] greater than 100 µM, a TGI [67] greater than 91.4 µM and a TGI [50] greater than 100 µM. It also gave a TGI [51] greater than 100 µM, a TGI [52] greater than 100 µM and a TGI [53] greater than 88 µM. It also gave a TGI [54] of 17.3 µM, a TGI [55] greater than 100 µM and a TGI [56] greater than 100 µM. The TGI [57] was greater than 100 µM.
